From ChEMBL document CHEMBL1201862, “PubChem BioAssay data set” (2004) come the findings set out here.

Molecules are shown by their SMILES.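 In this assay, cells in 96-well plates receive the compound at five concentrations for 48 hours. Endpoints are linearly interpolated between the surrounding concentrations. At the GI50, growth is halved.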 Calls of active or inactive are those of the source. No stated cut-off is given here; in the data, active = GI50 up to about 1.1 µM and inactive = higher.

Test systems include TK-10; 786-0; UACC-62; OVCAR-5; EKVX; MOLT-4; NCI-H522; RXF 393; NCI/ADR-RES; HCT-15; CCRF-CEM; HL-60; OVCAR-4; COLO 205; SK-MEL-5; A498; HCT-116; Hs-578T; CAKI-1; MDA-MB-231.
What all share (experiment): NCI-60 cell line screen, 48 h

Turning to `NC(=S)N/N=C/C1NCCC2CCCCC21` (stereo not given), the GI50 was 0.33 µM (active) in the test on TK-10; 0.138 µM (active) in the test on 786-0; 0.0452 µM (active) with UACC-62; 0.796 µM (active) in the test with OVCAR-5; 0.611 µM (active) in the test on EKVX; 0.257 µM (active) in the test with MOLT-4. Besides, the GI50 is 0.318 µM (active) in the test on NCI-H522; 2.43 µM (inactive) in the test on RXF 393; 0.254 µM (active) in the test with NCI/ADR-RES; 0.0895 µM with HCT-15; 0.31 µM (active) in the test on CCRF-CEM; 0.291 µM (active) with HL-60. The GI50 is 1.73 µM (inactive) in the test on OVCAR-4; 0.373 µM (active) in the test with COLO 205; 0.118 µM (active) in the test with SK-MEL-5; 0.17 µM (active) in the test on A498; 0.281 µM (active) in the test with HCT-116; 1.15 µM (inactive) in the test with Hs-578T. Besides, the GI50 with CAKI-1 was 0.0715 µM (active); with MDA-MB-231 it was 1.12 µM (active).

For the compound `O=C(N=C1N(c2ccccc2)C(=O)C(=O)N1c1ccccc1)c1ccccc1`, the GI50 is 15.3 µM (inactive) in the test with TK-10; 3.68 µM (inactive) in the test on 786-0; 7.93 µM (inactive) with UACC-62; 27.5 µM (inactive) in the test on OVCAR-5; 12.7 µM (inactive) in the test on EKVX; 15.5 µM (inactive) with MOLT-4. Besides, the GI50 was 1.66 µM (inactive) in the test with NCI-H522; 3.58 µM (inactive) with RXF 393; 11 µM (inactive) in the test on NCI/ADR-RES; 9.66 µM in the test on HCT-15; 24.8 µM (inactive) in the test with CCRF-CEM; 31.2 µM (inactive) with HL-60. Further, the GI50 was 2.95 µM (inactive) in the test with OVCAR-4; 13.9 µM (inactive) with COLO 205; 14.9 µM (inactive) with SK-MEL-5; 18.2 µM (inactive) in the test with A498; 3.99 µM (inactive) in the test with HCT-116; 4.65 µM (inactive) with Hs-578T. Besides, the GI50 was 13.5 µM (inactive) in the test with CAKI-1 and 6.9 µM (inactive) in the test on MDA-MB-231.

In the case of `Nc1nc(Cl)c2ncn(Cc3cccc(CCl)c3)c2n1`, the GI50 was 6.31 µM (inactive) in the test on TK-10; 5.37 µM (inactive) with 786-0; 4.16 µM (inactive) in the test on UACC-62; 9.16 µM (inactive) in the test on OVCAR-5; 8.97 µM (inactive) with EKVX; 3.6 µM (inactive) in the test with MOLT-4. For the same compound, the GI50 is 2.4 µM (inactive) in the test with NCI-H522; 2.61 µM (inactive) in the test on RXF 393; 3.47 µM (inactive) in the test with NCI/ADR-RES; 2.12 µM in the test with HCT-15; 3.18 µM (inactive) in the test with CCRF-CEM; 3.95 µM (inactive) in the test on HL-60. In addition, the GI50 in the test on OVCAR-4 is 2.13 µM (inactive); in the test on COLO 205 it was 8.38 µM (inactive); in the test on SK-MEL-5, 5.7 µM (inactive); with A498 it was 25 µM (inactive); in the test with HCT-116, 2 µM (inactive); with Hs-578T, 7.03 µM (inactive). For the same compound, the GI50 in the test with CAKI-1 is 1.23 µM (inactive); in the test on MDA-MB-231 it was 11 µM (inactive).

Consider `CC(=O)c1[nH]c(NCc2ccccc2)c(C(=S)Nc2ccccc2)c1N`, for which the GI50 with TK-10 was 27.5 µM (inactive); with 786-0, 17.3 µM (inactive); in the test with UACC-62, 16.6 µM (inactive); in the test on OVCAR-5, 24.3 µM (inactive); with EKVX, 27.1 µM (inactive); in the test on MOLT-4 it was 36.7 µM (inactive). In addition, the GI50 in the test with NCI-H522 is 0.0383 µM (active); in the test with RXF 393 it was 18.9 µM (inactive); in the test with NCI/ADR-RES it was 30.6 µM (inactive); in the test on HCT-15, 19.1 µM; in the test with CCRF-CEM, 28.1 µM (inactive); with HL-60, 5.32 µM (inactive). Further, the GI50 is 26.4 µM (inactive) in the test with OVCAR-4; 28.4 µM (inactive) in the test on COLO 205; 17.1 µM (inactive) in the test with SK-MEL-5; 17.9 µM (inactive) with A498; 18.4 µM (inactive) with HCT-116; 24 µM (inactive) with Hs-578T. The GI50 in the test with CAKI-1 was 31 µM (inactive); with MDA-MB-231 it was 15.1 µM (inactive).

On to `CN(CCNC(=O)c1nn(-c2ccccc2)c2c1Cc1ccccc1-2)CCNC(=O)c1nn(-c2ccccc2)c2c1Cc1ccccc1-2`, for which the GI50 in the test with TK-10 was 2.04 µM (inactive); with 786-0 it was 1.66 µM (inactive); with UACC-62, 1.71 µM (inactive); in the test on OVCAR-5, 2.37 µM (inactive); in the test with EKVX, 4.44 µM (inactive); in the test with MOLT-4, 3.65 µM (inactive). Further, the GI50 with NCI-H522 was 1.57 µM (inactive); in the test with RXF 393 it was 1.57 µM (inactive); in the test on NCI/ADR-RES, 2.17 µM (inactive); in the test on HCT-15, 1.88 µM; in the test with CCRF-CEM, 1.77 µM (inactive); in the test on HL-60, 1.32 µM (inactive). In addition, the GI50 with OVCAR-4 is 1.82 µM (inactive); in the test with COLO 205, 1.79 µM (inactive); in the test on SK-MEL-5 it was 1.79 µM (inactive); with A498 it was 1.84 µM (inactive); in the test with HCT-116 it was 1.65 µM (inactive); with Hs-578T it was 1.87 µM (inactive). In addition, the figures for the GI50 in the test on CAKI-1 and with MDA-MB-231 were 2.53 µM (inactive) and 1.82 µM (inactive), respectively.
